# Assay results reported in patent US20210045385A1, “PYRIDAZINONE-SUBSTITUTED KETOXIMES AS HERBICIDES” (FMC Corporation, priority 2018, published 2021).
# How the values were obtained:
# Assay type in all cases: in vivo
# [1] = system: Italian ryegrass (Lolium mutiflorum); experiment: Test C preemergence, visual plant response rating
# In short: (§1)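 Visual injury on a 0 (no effect) to 100 (complete control) scale versus untreated controls, scored approximately 10 d after treatment under greenhouse conditions. Treatments used surfactant-containing non-phytotoxic solvent formulations, sprayed onto loam–sand soil preemergence or onto one- to two-leaf plants 2–10 cm tall postemergence.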
# [2] = system: barnyardgrass (Echinochloa crus-galli); experiment: Test C preemergence, visual plant response rating
# In short: as §1
# [3] = system: foxtail, giant (giant foxtail, Setaria faberi); experiment: Test C preemergence, visual plant response rating
# In short: as §1
# kochia (Bassia scoparia) [4] = experiment: Test C preemergence, visual plant response rating
# In short: as §1
# [5] = system: pigweed (Amaranthus retroflexus); experiment: Test C preemergence, visual plant response rating
# In short: as §1
# [6] = system: ragweed (common ragweed, Ambrosia artemisiifolia); experiment: Test C preemergence, visual plant response rating
# In short: as §1
# [7] = system: Italian ryegrass (Lolium mutiflorum); experiment: Test C postemergence, visual plant response rating
# In short: as §1
# [8] = system: barnyardgrass (Echinochloa crus-galli); experiment: Test C postemergence, visual plant response rating
# In short: as §1
# [9] = system: blackgrass (Alopecurus myosuroides); experiment: Test C postemergence, visual plant response rating
# In short: as §1
# corn (Zea mays) = experiment: Test C postemergence, visual plant response rating
# In short: as §1
# [10] = system: foxtail, giant (giant foxtail, Setaria faberi); experiment: Test C postemergence, visual plant response rating
# In short: as §1
# [11] = system: galium (catchweed bedstraw, Galium aparine); experiment: Test C postemergence, visual plant response rating
# In short: as §1
# kochia (Bassia scoparia) [12] = experiment: Test C postemergence, visual plant response rating
# In short: as §1
# [13] = system: pigweed (Amaranthus retroflexus); experiment: Test C postemergence, visual plant response rating
# In short: as §1
# [14] = system: ragweed (common ragweed, Ambrosia artemisiifolia); experiment: Test C postemergence, visual plant response rating
# In short: as §1
# [15] = system: wheat (Triticum aestivum); experiment: Test C postemergence, visual plant response rating
# In short: as §1
# [16] = system: barnyardgrass (Echinochloa crus-galli); experiment: Test D flooded paddy test, visual plant response rating; conditions: 250 g ai/ha, scale 0 to 100 (0 no effect, 100 complete control), 13 to 15 d
# In short: (§2)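 Rating is visual, on a 0 (no effect) to 100 (complete control) scale versus controls, taken 13 to 15 d after treatment in a greenhouse. Treatment went into paddy water kept 3 cm above the soil surface, with plants at the 2-leaf stage.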
# [17] = system: duck salad (Heteranthera limosa); experiment: as above; conditions: 250 g ai/ha, scale 0 to 100 (0 no effect, 100 complete control), 13 to 15 d
# In short: as §2
# rice (Oryza sativa) = experiment: as above; conditions: 250 g ai/ha, scale 0 to 100 (0 no effect, 100 complete control), 13 to 15 d
# In short: as §2
# [18] = system: sedge umbrella (small-flower umbrella sedge, Cyperus difformis); experiment: as above; conditions: 250 g ai/ha, scale 0 to 100 (0 no effect, 100 complete control), 13 to 15 d
# In short: as §2
# [19] = Test C, 31 g ai/ha, 0 is no effect, 100 is complete control
# [20] = Test C, postemergence, 125 g ai/ha
# [21] = Test C, postemergence, 31 g ai/ha
# [22] = Test C, 125 g ai/ha, 0 is no effect, 100 is complete control
Structure (SMILES),"Ryegrass, Italian plant response rating (0 to 100 scale) [1, 19]","Barnyardgrass plant response rating (0 to 100 scale) [2, 19]","Foxtail, Giant plant response rating (0 to 100 scale) [3, 19]",Kochia plant response rating (0 to 100 scale) (kochia (Bassia scoparia) [4]; [19]),"Pigweed plant response rating (0 to 100 scale) [5, 19]","Ragweed plant response rating (0 to 100 scale) [6, 19]","Ryegrass, Italian plant response rating (0 to 100 scale) ([7]; Postemergence, 31 g ai/ha)","Ryegrass, Italian plant response rating (0 to 100 scale) [7, 20]","Barnyardgrass plant response rating (0 to 100 scale) [8, 20]","Blackgrass plant response rating (0 to 100 scale) [9, 20]",Corn plant response rating (0 to 100 scale) (corn (Zea mays); [20]),"Foxtail, Giant plant response rating (0 to 100 scale) [10, 20]","Galium plant response rating (0 to 100 scale) [11, 20]",Kochia plant response rating (0 to 100 scale) (kochia (Bassia scoparia) [12]; [20]),"Pigweed plant response rating (0 to 100 scale) ([13]; Postemergence, 31 g ai/ha)","Pigweed plant response rating (0 to 100 scale) [13, 20]","Ragweed plant response rating (0 to 100 scale) ([14]; Postemergence, 31 g ai/ha)","Ragweed plant response rating (0 to 100 scale) [14, 20]","Wheat plant response rating (0 to 100 scale) ([15]; Postemergence, 31 g ai/ha)","Wheat plant response rating (0 to 100 scale) [15, 20]",other results
Cc1nn(C)c(=O)c(/C(=N/OCc2ccccc2)c2ccc(F)c3ccccc23)c1O [Compound 158],0,20,10,0,0,40,0,20,70,10,10,70,0,0,50,50,40,60,0,0,"Ryegrass, Italian plant response rating (0 to 100 scale) ([1]; 125 g ai/ha): 0; Barnyardgrass plant response rating (0 to 100 scale) ([2]; 125 g ai/ha): 30; Foxtail, Giant plant response rating (0 to 100 scale) ([3]; 125 g ai/ha): 80; Kochia plant response rating (0 to 100 scale) (kochia (Bassia scoparia) [4]; 125 g ai/ha): 0; Pigweed plant response rating (0 to 100 scale) ([5]; 125 g ai/ha): 50; Ragweed plant response rating (0 to 100 scale) ([6]; 125 g ai/ha): 40; Barnyardgrass plant response rating (0 to 100 scale) [8, 21]: 50; Blackgrass plant response rating (0 to 100 scale) [9, 21]: 0; Corn plant response rating (0 to 100 scale) (corn (Zea mays); [21]): 0; Foxtail, Giant plant response rating (0 to 100 scale) [10, 21]: 30; Galium plant response rating (0 to 100 scale) [11, 21]: 90; Kochia plant response rating (0 to 100 scale) (kochia (Bassia scoparia) [12]; [21]): 0; Plant response rating, Barnyardgrass (Flood) [16]: 45; Plant response rating, Ducksalad (Flood) [17]: 50; Plant response rating, Rice (Flood) (rice (Oryza sativa)): 15; Plant response rating, Sedge, Umbrella (Flood) [18]: 65"
CON=C(c1cc(Cl)cc(Cl)c1F)c1c(O)c(C)nn(C)c1=O [Compound 153],100,80,90,60,100,90,90,100,90,80,50,100,100,100,100,100,90,100,40,80,"Ryegrass, Italian plant response rating (0 to 100 scale) ([1]; 125 g ai/ha): 100; Barnyardgrass plant response rating (0 to 100 scale) ([2]; 125 g ai/ha): 90; Foxtail, Giant plant response rating (0 to 100 scale) ([3]; 125 g ai/ha): 100; Kochia plant response rating (0 to 100 scale) (kochia (Bassia scoparia) [4]; 125 g ai/ha): 90; Pigweed plant response rating (0 to 100 scale) ([5]; 125 g ai/ha): 100; Ragweed plant response rating (0 to 100 scale) ([6]; 125 g ai/ha): 100; Barnyardgrass plant response rating (0 to 100 scale) [8, 21]: 80; Blackgrass plant response rating (0 to 100 scale) [9, 21]: 50; Corn plant response rating (0 to 100 scale) (corn (Zea mays); [21]): 20; Foxtail, Giant plant response rating (0 to 100 scale) [10, 21]: 90; Galium plant response rating (0 to 100 scale) [11, 21]: 100; Kochia plant response rating (0 to 100 scale) (kochia (Bassia scoparia) [12]; [21]): 90; Plant response rating, Barnyardgrass (Flood) [16]: 80; Plant response rating, Ducksalad (Flood) [17]: 55; Plant response rating, Rice (Flood) (rice (Oryza sativa)): 40; Plant response rating, Sedge, Umbrella (Flood) [18]: 70"
Cc1nn(C)c(=O)c(C(=NOC(C)C)c2cc(Cl)cc(Cl)c2Cl)c1O [Compound 295],80,0,100,0,80,90,100,100,70,0,30,90,100,50,60,90,100,100,30,100,"Ryegrass, Italian plant response rating (0 to 100 scale) [1, 22]: 100; Barnyardgrass plant response rating (0 to 100 scale) [2, 22]: 0; Foxtail, Giant plant response rating (0 to 100 scale) [3, 22]: 100; Kochia plant response rating (0 to 100 scale) (kochia (Bassia scoparia) [4]; [22]): 70; Pigweed plant response rating (0 to 100 scale) [5, 22]: 100; Ragweed plant response rating (0 to 100 scale) [6, 22]: 100; Barnyardgrass plant response rating (0 to 100 scale) ([8]; Postemergence, 31 g ai/ha): 50; Blackgrass plant response rating (0 to 100 scale) ([9]; Postemergence, 31 g ai/ha): 0; Corn plant response rating (0 to 100 scale) (corn (Zea mays); Postemergence, 31 g ai/ha): 0; Foxtail, Giant plant response rating (0 to 100 scale) ([10]; Postemergence, 31 g ai/ha): 70; Galium plant response rating (0 to 100 scale) ([11]; Postemergence, 31 g ai/ha): 100; Kochia plant response rating (0 to 100 scale) (kochia (Bassia scoparia) [12]; Postemergence, 31 g ai/ha): 0; Plant response rating, Barnyardgrass (Flood) [16]: 60; Plant response rating, Ducksalad (Flood) [17]: 65; Plant response rating, Rice (Flood) (rice (Oryza sativa)): 60; Plant response rating, Sedge, Umbrella (Flood) [18]: 70"
C#CCO/N=C(/c1cccc(/C=C/Cl)c1)c1c(O)c(C)nn(C)c1=O [Compound 253],0,0,0,0,0,0,10,60,40,60,0,50,50,60,50,70,30,40,0,30,"Ryegrass, Italian plant response rating (0 to 100 scale) [1, 22]: 30; Barnyardgrass plant response rating (0 to 100 scale) [2, 22]: 0; Foxtail, Giant plant response rating (0 to 100 scale) [3, 22]: 10; Kochia plant response rating (0 to 100 scale) (kochia (Bassia scoparia) [4]; [22]): 0; Pigweed plant response rating (0 to 100 scale) [5, 22]: 80; Ragweed plant response rating (0 to 100 scale) [6, 22]: 0; Barnyardgrass plant response rating (0 to 100 scale) ([8]; Postemergence, 31 g ai/ha): 10; Blackgrass plant response rating (0 to 100 scale) ([9]; Postemergence, 31 g ai/ha): 20; Corn plant response rating (0 to 100 scale) (corn (Zea mays); Postemergence, 31 g ai/ha): 0; Foxtail, Giant plant response rating (0 to 100 scale) ([10]; Postemergence, 31 g ai/ha): 20; Galium plant response rating (0 to 100 scale) ([11]; Postemergence, 31 g ai/ha): 30; Kochia plant response rating (0 to 100 scale) (kochia (Bassia scoparia) [12]; Postemergence, 31 g ai/ha): 20; Plant response rating, Barnyardgrass (Flood) [16]: 0; Plant response rating, Ducksalad (Flood) [17]: 0; Plant response rating, Rice (Flood) (rice (Oryza sativa)): 0; Plant response rating, Sedge, Umbrella (Flood) [18]: 0"
